Experimental data reported in patent US20130165417A1, “METHODS AND COMPOSITIONS FOR TREATING ACE2-RELATED DISORDERS” (UNIVERSITY OF FLORIDA RESEARCH FOUNDATION, priority 2010, published 2013).
Entries after “also recorded” stand apart in the source; their conditions may differ.

Key:
[1] = system: models of pulmonary hypertension; test: Two models of pulmonary hypertension; format: in vivo
[2] = system: monocrotaline (MCT) treated rats; test: Monocrotaline (MCT) treated rats, pulmonary hypertension; format: in vivo, rat
myocardial infarction = test: Myocardial infarction model of cardiac disease; format: in vivo
[3] = system: Endothelial progenitor cells harvested from pulmonary hypertensive patients; test: Function of endothelial progenitor cells from pulmonary hypertensive patients; format: cell-based, human
Excerpt: Another important finding is the effect of DIZE on stem cell function. Endothelial progenitor cells harvested from pulmonary hypertensive patients are dysfunctional and have decreased ability to repair vascular damage induced by the disease.

Recombinant ACE = target: T1, Recombinant ACE (Homo sapiens, UniProt P12821); test: ACE activity assay with fluorogenic peptide substrate; format: biochemical; details: FIG. 2
T1 construct: purchased R&D Systems, Minneapolis, Minn; 929-ZN-10
T1 sequence (P12821 30-1306): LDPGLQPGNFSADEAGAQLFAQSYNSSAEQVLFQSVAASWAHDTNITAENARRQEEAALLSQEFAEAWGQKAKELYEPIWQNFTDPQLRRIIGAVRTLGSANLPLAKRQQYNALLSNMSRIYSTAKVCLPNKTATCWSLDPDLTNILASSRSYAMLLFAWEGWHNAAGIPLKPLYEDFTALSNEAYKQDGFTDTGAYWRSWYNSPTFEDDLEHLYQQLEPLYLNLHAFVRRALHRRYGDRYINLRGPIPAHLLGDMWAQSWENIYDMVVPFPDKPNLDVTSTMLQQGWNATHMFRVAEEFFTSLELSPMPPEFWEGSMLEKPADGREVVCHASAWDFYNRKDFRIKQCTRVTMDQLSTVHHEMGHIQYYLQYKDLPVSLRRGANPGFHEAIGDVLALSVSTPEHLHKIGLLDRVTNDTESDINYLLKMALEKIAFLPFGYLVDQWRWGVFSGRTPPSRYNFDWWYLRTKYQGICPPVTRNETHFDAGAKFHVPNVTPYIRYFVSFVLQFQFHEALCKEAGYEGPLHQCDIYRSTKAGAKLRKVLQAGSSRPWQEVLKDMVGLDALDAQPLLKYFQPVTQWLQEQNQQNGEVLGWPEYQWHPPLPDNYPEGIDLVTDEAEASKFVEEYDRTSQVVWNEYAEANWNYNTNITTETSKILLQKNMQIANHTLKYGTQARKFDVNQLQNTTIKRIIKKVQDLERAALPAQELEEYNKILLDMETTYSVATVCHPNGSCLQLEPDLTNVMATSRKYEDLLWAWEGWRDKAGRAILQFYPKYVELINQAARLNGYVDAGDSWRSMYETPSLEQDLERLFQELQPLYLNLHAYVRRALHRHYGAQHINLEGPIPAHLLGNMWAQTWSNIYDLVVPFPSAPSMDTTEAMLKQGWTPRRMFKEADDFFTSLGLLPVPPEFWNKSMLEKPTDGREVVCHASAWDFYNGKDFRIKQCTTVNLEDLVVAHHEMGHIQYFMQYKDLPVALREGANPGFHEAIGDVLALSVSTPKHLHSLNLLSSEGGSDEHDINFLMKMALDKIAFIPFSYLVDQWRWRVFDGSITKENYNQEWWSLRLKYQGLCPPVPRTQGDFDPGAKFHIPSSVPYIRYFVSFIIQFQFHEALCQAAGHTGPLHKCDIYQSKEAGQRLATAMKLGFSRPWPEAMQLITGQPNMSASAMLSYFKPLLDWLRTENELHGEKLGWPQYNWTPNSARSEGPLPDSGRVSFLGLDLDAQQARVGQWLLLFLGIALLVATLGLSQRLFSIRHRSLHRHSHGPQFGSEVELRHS
Procedure: (§1) Recombinant ACE and ACE2 are obtained in purified form from R&D Systems, Minneapolis, Minn. (catalog ID: 929-ZN-10 and 933-ZN-10, respectively). Substrates for ACE (fluorogenic peptide V, Mca-[…](Dnp)-OH, catalog ID: ES005), and for ACE2 (fluorogenic peptide VI, Mca-YVADAPK(Dnp)-OH, catalog ID: ES007) are obtained from R&D systems. Dry compounds are resuspended in 100% DMSO to prepare 100 mM stock solutions, according to the amount of compound and its molecular weight. Gentle heating to 60-80° C. is carried out to assist their solubilization. Compounds are further diluted to 50 mM stocks if clearly difficult to dissolve.
(§2) Activity of ACE and ACE2 are measured with a Spectra Max Gemini EM Florescence Reader (Molecular Devices). The enzyme removes the c-terminal dinitrophenyl moiety that quenches the inherent fluorescence of its 7-methoxycoumain group, resulting in an increase in fluorescence in the presence of enzyme activity. Fluorescence is measured with excitation and emission spectra of 328 nm and 392 nm, respectively. Reaction mixtures are prepared in 100 μl volumes and different concentrations of compound are tested against 10 μM substrate. 10 nM enzyme in 100 mM NaCl, 75 mM Tris, 0.5 μM ZnCl2, at pH 7.4. Samples are read every 15-20 seconds for at least 30 minutes immediately after the addition of fluorogenic peptide substrate at 37° C. […]

Wistar Kyoto rats (WKYs) = test: Direct blood pressure and heart rate measurement after IV bolus, WKY rats; format: in vivo, rat
Procedure: (§3) Male Wistar-Kyoto (WKY) rats and spontaneously hypertensive rats (SHRs) were purchased from Charles River Laboratories (Wilmington, Mass., USA). All procedures were performed in conformity with approved Institutional Animal Care and Use Committee protocols and University of Florida regulations.
(§4) Cannulation of the animals (WKY rats and SHRs) was performed 24 h prior to the start of the drug administration and direct blood pressure (BP) measurement. Animals were anesthetized with a mixture of ketamine, xylazine, and acepromazine (30, 6, and 1 mg/kg, respectively). The two types of the cannulae used were: 1) a polyethylene cannula (PE-50, Clay Adams) introduced into the carotid artery for direct BP measurements and 2) a silicone elastomer cannula (Helix Medical) introduced into the descending jugular vein for acute intravenous (IV) bolus injections of the drug. Both cannulae were filled with heparin saline (40 U/mL, Sigma), and sealed with stylets. The IV drug administration of diminazene aceturate (DIZE) (LKT laboratories, St. Paul, Minn., USA) and the dose-response curves in WKYs and SHRs were obtained in awake, freely moving animals after a 24 h recovery period. Doses of diminazene aceturate (DIZE) (0.04, […], 0.6, 1.25, 2.5, 5 and 10 mg/kg) were administered as an IV bolus via the jugular cannula, and BP data recording was interfaced by a PowerLab (ADlnstruments) signal transduction unit. The data analysis was done using the Chart program (PowerLab system).

ACE2 [4] = target: T2, ACE2 (Homo sapiens, UniProt Q9BYF1); test: ACE2 activity assay with fluorogenic peptide substrate; format: biochemical; parameters: purchased R&D Systems, Minneapolis, Minn; 933-ZN-10
Procedure: as §1, §2
Target sequence in this assay (Q9BYF1 18-740 limits assumed): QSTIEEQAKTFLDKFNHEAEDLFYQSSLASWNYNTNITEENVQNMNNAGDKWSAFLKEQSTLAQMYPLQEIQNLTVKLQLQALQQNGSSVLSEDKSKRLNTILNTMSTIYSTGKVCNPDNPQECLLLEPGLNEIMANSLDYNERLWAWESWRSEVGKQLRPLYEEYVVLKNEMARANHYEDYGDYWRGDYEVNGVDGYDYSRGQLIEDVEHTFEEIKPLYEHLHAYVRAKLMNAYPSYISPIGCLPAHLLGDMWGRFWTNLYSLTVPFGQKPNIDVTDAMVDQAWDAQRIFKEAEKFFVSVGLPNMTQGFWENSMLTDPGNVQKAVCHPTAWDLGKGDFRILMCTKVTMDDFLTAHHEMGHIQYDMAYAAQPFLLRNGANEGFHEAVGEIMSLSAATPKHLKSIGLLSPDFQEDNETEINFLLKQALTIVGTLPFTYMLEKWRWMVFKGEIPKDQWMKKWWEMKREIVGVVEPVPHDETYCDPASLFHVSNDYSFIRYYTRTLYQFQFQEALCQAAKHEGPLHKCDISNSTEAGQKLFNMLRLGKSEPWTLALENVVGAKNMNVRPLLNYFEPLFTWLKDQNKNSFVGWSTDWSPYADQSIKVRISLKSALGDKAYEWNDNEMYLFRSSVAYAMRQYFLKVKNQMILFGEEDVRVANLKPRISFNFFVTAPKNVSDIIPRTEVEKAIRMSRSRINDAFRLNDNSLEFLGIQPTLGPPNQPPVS

[5] = system: spontaneously hypertensive rats (SHRs); test: Direct blood pressure and heart rate measurement after IV bolus, SHRs; format: in vivo, rat
Procedure: as §3, §4

ACE2 [6] = target: T2, ACE2; details: Donoghue et al. 2000, Tipnis et al. 2000; cited from earlier work
Target sequence in this assay (Q9BYF1 18-805): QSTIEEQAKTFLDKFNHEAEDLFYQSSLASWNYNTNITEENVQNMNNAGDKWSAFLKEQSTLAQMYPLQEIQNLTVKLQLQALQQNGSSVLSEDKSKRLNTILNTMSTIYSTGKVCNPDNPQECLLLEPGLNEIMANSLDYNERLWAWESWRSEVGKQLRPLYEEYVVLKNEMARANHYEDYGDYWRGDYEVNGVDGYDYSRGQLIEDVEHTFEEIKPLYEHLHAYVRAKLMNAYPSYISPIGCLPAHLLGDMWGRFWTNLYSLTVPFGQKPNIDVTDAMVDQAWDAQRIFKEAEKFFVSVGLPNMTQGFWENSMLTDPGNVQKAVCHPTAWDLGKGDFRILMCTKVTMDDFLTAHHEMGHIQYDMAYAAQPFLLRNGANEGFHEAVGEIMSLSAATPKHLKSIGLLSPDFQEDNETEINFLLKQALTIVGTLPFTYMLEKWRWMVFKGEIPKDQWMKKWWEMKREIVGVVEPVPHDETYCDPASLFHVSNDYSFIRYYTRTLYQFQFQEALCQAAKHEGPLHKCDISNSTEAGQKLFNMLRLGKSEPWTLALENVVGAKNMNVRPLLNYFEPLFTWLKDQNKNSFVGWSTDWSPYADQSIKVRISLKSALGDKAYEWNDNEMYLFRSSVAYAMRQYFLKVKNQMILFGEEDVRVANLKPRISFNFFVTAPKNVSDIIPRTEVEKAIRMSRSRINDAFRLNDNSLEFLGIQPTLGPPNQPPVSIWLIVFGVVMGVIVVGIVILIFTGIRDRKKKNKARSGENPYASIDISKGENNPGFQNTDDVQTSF

SMILES: N=C(N)c1ccc(N=NNc2ccc(C(=N)N)cc2)cc1 [DIZE, 4,4′-(1-Triazene-1,3-diyl)bis(benzenecarboximidamide)]
- progression of pathophysiology ([1]; administered after the development of pulmonary hypertension): arrested
- development of the disorder ([1]; pretreatment): completely prevents the development of these disorders
- fibrosis ([1]; pretreatment): virtually absent
- pulmonary pressure ([1]; pretreatment): nearly normalized
- MCT-induced right ventricular fibrosis ([2]; FIG. 6): causes reversal
- Right Ventricular Systolic Pressure (RVSP) and Right Ventricular Hypertrophy (RVH), prevention ([2]; MCT treated rats, FIG. 4): prevents increase
- RVSP and RVH, reversal ([2]; MCT-treated rats, FIG. 5): reverses increases
- MI-induced cardiac dysfunctions (myocardial infarction; FIG. 3): attenuates
- cardiac function (myocardial infarction; pretreatment): significantly improves cardiac function
- development of the disorder (myocardial infarction; pretreatment): completely prevents the development of these disorders
- infarct area (myocardial infarction; pretreatment): reduces infarct area
- endothelial progenitor cell dysfunction (ability to repair vascular damage) [3]: significantly improves this dysfunction
- effect on ACE activity (Recombinant ACE): increases ACE2 but not ACE activity
- reduction of mean arterial pressure (MAP) (Wistar Kyoto rats (WKYs); WKY rats, 5 mg/kg intravenous, n=6): 50±9 mmHg
- effect on heart rate (Wistar Kyoto rats (WKYs); WKY, acute IV bolus): does not affect the heart rate
- change in mean arterial pressure (MAP) (Wistar Kyoto rats (WKYs); WKYs, intravenous administration, result in words): transient and dose dependent decrease
- maximal increase in ACE2 activity (Vmax) (ACE2 [4]; observed with 50 μM): 2.3 fold
- effect on ACE2 activity (ACE2 [4]; result in words): dose-dependent increase in ACE2 activity; also recorded: enhances specifically the ACE2 enzyme activity
- effect on heart rate ([5]; SHR, acute IV bolus): does not affect the heart rate
- reduction of mean arterial pressure (MAP) ([5]; SHRs, 5 mg/kg intravenous, n=6): 85±11 mmHg
- change in mean arterial pressure (MAP) ([5]; SHRs, intravenous administration, result in words): transient and dose dependent decrease; also recorded: greater reduction in blood pressure in SHRs compared to WKY control rats

SMILES: C[C@H](CS)C(=O)N1CCC[C@H]1C(=O)O [captopril]
- effect on activity of ACE2 (ACE2 [6]): do not significantly affect
